Measurements: patent publication US9907760B2 (LIBRAGEN, priority 2010, dated 2018)
Marks after values point to notes of the source that are not given here.

Key:
normal human fibroblasts [1] = assay: Hyaluronic acid production by normal human fibroblasts treated with supernatant of treated keratinocytes (HA-ELISA); type: cell-based; details: supernatant on fibroblasts 48 hrs
Procedure: Normal human dermal fibroblasts were cultured to confluence. Cells were treated for 48 hours with supernatants of normal human keratinocytes previously grown in the presence of the test products. The fibroblast supernatants, containing hyaluronic acid, were collected and assayed immediately. Hyaluronic acid was quantified with an ELISA microtiter plate. Protein content was determined for each well of the microtiter plate.
(§1) Primocultures of normal human keratinocytes (NHK) were obtained from cells isolated from skin specimens from plastic surgery.
(§2) NHK were seeded at a density of 130,000 cells/well in specific KSFM culture medium (Gibco®, Invitrogen) in a 24-well plate. The plate was placed in a humid incubator (37° C., 5% CO2) for 24 hours.
Primocultures of normal human fibroblasts (NHF) were obtained from cells isolated from skin specimens from plastic surgery.
NHF were seeded at a density of 90,000 cells/well in E-199 culture medium supplemented with 0.5% FCS (Gibco® Invitrogen) in a 24-well plate. The plate was placed in a humid incubator (37° C., 5% CO2) for 24 hours.
The two cell types—NHK and NHF—were plated 48 hours apart.
The different products at the respective concentrations (diluted in KSFM medium, 600 μl) were contacted with NHK cells for 48 hours. Untreated cells were used as the control condition. Two plates were used to separately test NAG, and NAG+vitamin A propionate, on the one hand, and NAG6P, and NAG6P+vitamin A propionate, on the other hand.
(§3) Each treatment condition was evaluated on three wells of NHK cells.
After 48 hours, a fraction of NHK cell supernatant (300 μl/well) was removed and transferred well for well into NHF cell supernatants (300 μl E-199/well−fresh medium without FCS).
This gave a final volume of 600 μl/well (50:50 ratio of KSFM/E-199 medium) which remained on the NHF cells for 48 hours.
After 48 hours of treatment, the NHF cell supernatant was collected and centrifuged.
Hyaluronic acid was assayed in the cell supernatants as described in example 1.
(§4) The assay was performed in duplicate for each well.
(§5) Optical densities (OD) measured on each sample were plotted on a graph (specific standard curve in the kit). The hyaluronic acid concentration was expressed in ng/ml.
(§6) The amount of hyaluronic acid released by the cells was determined for each well and for each treatment condition, relative to the cell content expressed as μg of protein. Thus, the final result was expressed as ng/ml of hyaluronic acid per μg of protein.
(§7) A mean value was calculated for wells treated with the same concentration of test product. This mean was compared with the mean of the control wells (Student t test−comparison of means−significant difference at 95% if p<0.05* and at 99% if p<0.01**).
(§8) The percent stimulation induced by the test products was determined by comparing the mean values of the control and treatment conditions: % Stimulation=(Treated−Control)/Control

normal human fibroblasts [2] = assay: Procollagen 1 production by normal human fibroblasts treated with supernatant of treated keratinocytes (EIA); type: cell-based; details: supernatant on fibroblasts 48 hrs
Procedure: This experiment was carried out according to the method described in example 3. Fibroblast supernatants, containing procollagen 1, were collected and assayed immediately for procollagen 1 by means of an EIA microtiter plate.
After 48 hours of treatment, NHF cell supernatants were collected and centrifuged.
Procollagen 1 was assayed in the cell supernatants by the method described in the Procollagen Type 1 C-peptide EIA kit (MK101, Takara). This is an EIA assay with spectrophotometric detection at 450 nm (Safire, Tecan).
Duplicate determinations were carried out for two wells whereas the third well was assayed only once.
Optical densities (OD) measured on each sample were plotted on a graph (specific standard curve in the kit). The procollagen 1 concentration was expressed in ng/ml.
As in example 3, the protein content was determined in the cell pellets of the supernatants for which procollagen 1 was assayed.
as §7, with “Thus, the final result was expressed as ng/ml of procollagen 1 per μg of protein. A” for “A”, “means, significant” for “means−significant”
The percent stimulation produced by the test products was determined by comparing the mean values of the control and treatment conditions: % Stimulation=(Treated−Control)/Control

normal human fibroblasts [3] = assay: Proliferation of normal human fibroblasts treated with supernatant of treated keratinocytes (Cell Proliferation ELISA, BrdU); type: cell-based; details: 1 μM on keratinocytes 48 hrs, supernatant on fibroblasts 48 hrs
Procedure: This experiment evaluated the proliferation of normal human fibroblasts (dermal primocultures) after 48 hours of treatment with supernatant transferred from human keratinocytes.
The “Cell Proliferation ELISA, BrdU” test quantifies cell proliferation by measuring incorporation of bromodeoxyuridine (BrdU) during DNA synthesis followed by luminescence detection.
Cells were placed in the presence of the treatment for a specified time (incubator at 37° C., 5% CO2). The pyrimidine analogue 5-bromo-2′-deoxyuridine (BrdU) was then added and the cells were further incubated (37° C., 5% CO2) for a minimum of 2 hours, during which time BrdU is incorporated in place of thymidine into the DNA of proliferating cells.
The culture medium was removed, then the cells were fixed and the DNA denatured at the same time (antibody accessibility). An anti-BrdU-POD (peroxidase) antibody was added; this antibody binds to BrdU in newly synthesized DNA. The immune complex was then detected by addition of luminol substrate with measurement of luminescence (Genios, Tecan).
NHF were seeded at a density of 5,000 cells/well in E-199 culture medium (Gibco® Invitrogen) in a 96-well Optilux white plate (BD Falcon 353947). The plate was placed in a humid incubator (37° C., 5% CO2) for 24 hours.
The different products at the respective concentrations (diluted in KSFM culture medium, 600 μl) were contacted with NHK cells for 48 hours. Control cells were left untreated. Each treatment conditions was evaluated on three wells of NHK cells.
After 48 hours, a fraction of the NHK cell supernatant was removed. Each sample of supernatant (2 times 100 μl) from a well on the NHK plate (24 wells) was transferred to two wells in the NHF plate already containing 100 μl of E-199 medium per well. […]
Cell proliferation was quantified by the method described in the “Cell Proliferation ELISA, BrdU” kit (Roche Applied Science No. 11669915001). This is an immunological assay with luminescence detection (Genios, Tecan).
The means of the luminescence values (RLU/s) of six wells with the same treatment condition were determined. […] Proliferation of treated cells was expressed as a percentage of the control(untreated cells−100%)(OD treated/OD control×100).

[4] = system: normal human keratinocytes; assay: Hyaluronic acid production by normal human keratinocytes (HA-ELISA of supernatant); type: cell-based; details: 1 μM
Procedure: Normal human keratinocytes were cultured to confluence. Cells were treated with the test products for 48 hours. The supernatants, containing hyaluronic acid, were collected and assayed immediately. Hyaluronic acid was quantified with an ELISA microtiter plate.
as §1, §2
The different products at the respective concentrations (diluted in KSFM medium, 600 μl) were contacted with the cells for 48 hours. Untreated cells were used as the control condition.
as §3
After 24 hours of treatment, an intermediate sample of […] of supernatant was removed from each well and the plate returned to the incubator (37° C., 5% CO2).
After 48 hours of treatment, the remaining supernatant (≈350 μA) was collected and centrifuged.
Cell supernatants were assayed according to the method described in the Hyaluronan Enzyme-Linked Immunosorbent Assay kit (HA-ELISA, Echelon Biosciences Inc.). This is an ELISA assay with spectrophotometric detection at 405 nm (Safire, Tecan).
as §4, §5, §6
A mean value was calculated for wells treated with the same concentration of test product. This mean was compared with the mean of the control wells (Student t test−comparison of means−significant difference at 95% if p<0.05* and at 99% if p<0.01*).
as §8
The vitamin A propionate was dissolved in DMSO.

[5] = system: patients with osteoarthritis; details: three-year trial, 212 patients with osteoarthritis, versus slight worsening in placebo group; cited from earlier work
[6] = 5 mM on keratinocytes 48 hrs, vs Control
[7] = 10 mM on keratinocytes 48 hrs, vs Control
[8] = 1 μM on keratinocytes 48 hrs, NAG6P plate (Table 6)
[9] = 1 μM on keratinocytes 48 hrs, NAG plate (Table 5)
[10] = 1 μM on keratinocytes 48 hrs, NAG6P plate (Table 8)
[11] = 1 μM on keratinocytes 48 hrs, NAG plate (Table 7)

CC(=O)N[C@H]1C(O)O[C@H](CO)[C@@H](O)[C@@H]1O (stereo partly shown) [NAG, N-acetylglucosamine]
Hyaluronic acid (normal human fibroblasts [1]; 5 mM on keratinocytes 48 hrs): 4277.6 ± 488 ng/mL | Hyaluronic acid (ng/ml/μg prot.) (normal human fibroblasts [1]; 5 mM on keratinocytes 48 hrs): 358.9 ± 81.8 ng/ml/μg prot. | % stimulation of hyaluronic acid synthesis (normal human fibroblasts [1]; [6]): −17% | Hyaluronic acid (normal human fibroblasts [1]; 10 mM on keratinocytes 48 hrs): 4056.1 ± 315.5 ng/mL | Hyaluronic acid (ng/ml/μg prot.) (normal human fibroblasts [1]; 10 mM on keratinocytes 48 hrs): 258.8 ± 8.1 ng/ml/μg prot. | % stimulation of hyaluronic acid synthesis (normal human fibroblasts [1]; [7]): −40%** | Procollagen 1 (normal human fibroblasts [2]; 5 mM on keratinocytes 48 hrs): 685.9 ± 38.6 ng/mL | Procollagen 1 (ng/ml/μg prot.) (normal human fibroblasts [2]; 5 mM on keratinocytes 48 hrs): 57.3 ± 10.5 ng/ml/μg prot. | % stimulation (procollagen 1) (normal human fibroblasts [2]; [6]): −37%* | Procollagen 1 (normal human fibroblasts [2]; 10 mM on keratinocytes 48 hrs): 700.9 ± 32.7 ng/mL | Procollagen 1 (ng/ml/μg prot.) (normal human fibroblasts [2]; 10 mM on keratinocytes 48 hrs): 44.9 ± 1.3 ng/ml/μg prot. | % stimulation (procollagen 1) (normal human fibroblasts [2]; [7]): −51%**

CCC(=O)OC/C=C(C)/C=C/C=C(C)/C=C/C1=C(C)CCCC1(C)C [Vit. A propionate, vitamin A propionate]
Hyaluronic acid (normal human fibroblasts [1]; [8]): 3358.8 ± 615.3 ng/mL | Hyaluronic acid (ng/ml/μg prot.) (normal human fibroblasts [1]; [8]): 389.2 ± 108.3 ng/ml/μg prot. | % stimulation of hyaluronic acid synthesis (normal human fibroblasts [1]; 1 μM on keratinocytes 48 hrs, NAG6P plate (Table 6), vs DMSO control): 7% | Hyaluronic acid (normal human fibroblasts [1]; [9]): 3645.6 ± 667.8 ng/mL | Hyaluronic acid (ng/ml/μg prot.) (normal human fibroblasts [1]; [9]): 316.6 ± 68 ng/ml/μg prot. | % stimulation of hyaluronic acid synthesis (normal human fibroblasts [1]; 1 μM on keratinocytes 48 hrs, NAG plate (Table 5), vs DMSO control): −18% | RLU (normal human fibroblasts [3]): 4640 ± 267 RLU | % Proliferation (normal human fibroblasts [3]; DMSO control = 100%): 109%** | Procollagen 1 (normal human fibroblasts [2]; [10]): 704.4 ± 38.6 ng/mL | Procollagen 1 (ng/ml/μg prot.) (normal human fibroblasts [2]; [10]): 81.9 ± 13.0 ng/ml/μg prot. | % stimulation (procollagen 1) (normal human fibroblasts [2]; 1 μM on keratinocytes 48 hrs, NAG6P plate (Table 8), vs DMSO control): 5% | Procollagen 1 (normal human fibroblasts [2]; [11]): 706.1 ± 73.8 ng/mL | Procollagen 1 (ng/ml/μg prot.) (normal human fibroblasts [2]; [11]): 64.3 ± 20.1 ng/ml/μg prot. | % stimulation (procollagen 1) (normal human fibroblasts [2]; 1 μM on keratinocytes 48 hrs, NAG plate (Table 7), vs DMSO control): 15% | % stimulation of hyaluronic acid synthesis ([4]; 24 hrs): 34%* | Hyaluronic acid ([4]; 24 hrs): 1056 ± 186.5 ng/mL | % stimulation of hyaluronic acid synthesis ([4]; 24 hrs, listed as vitamin A propionate): 34% | Hyaluronic acid ([4]; 48 hrs): 1944.8 ± 393.2 ng/mL | Hyaluronic acid (ng/ml/μg prot.) ([4]; 48 hrs): 137.1 ± 32.2 ng/ml/μg prot. | % stimulation of hyaluronic acid synthesis ([4]; 48 hrs, vs DMSO control): 105%* | % stimulation of hyaluronic acid synthesis ([4]; 48 hrs, vs DMSO control, listed as vitamin A propionate): 105%

N[C@H]1C(O)O[C@H](CO)[C@@H](O)[C@@H]1O (stereo partly drawn) [glucosamine, D-glucosamine]
improvement in symptoms [5]: 20-25%
